Consider 23 molecules from patent publication US20210163443A1, “Febrifugine Derivatives” (BRISTOL-MYERS SQUIBB COMPANY, priority 2019, published 2021).

This experiment has as its target T1, human ProRS (prolyl tRNA synthetase moiety of glutamyl prolyl tRNA synthetase, EPRS) (Homo sapiens, UniProt P07814).
T1 construct: The prolyl tRNA synthetase moiety (ProRS) in the cDNA of glutamyl prolyl tRNA synthetase was subcloned; 6xHis (N, cleaved yes); made in house; host or cells: E. coli BL21 (DE3)
T1 sequence (P07814 1007-1512 limits assumed): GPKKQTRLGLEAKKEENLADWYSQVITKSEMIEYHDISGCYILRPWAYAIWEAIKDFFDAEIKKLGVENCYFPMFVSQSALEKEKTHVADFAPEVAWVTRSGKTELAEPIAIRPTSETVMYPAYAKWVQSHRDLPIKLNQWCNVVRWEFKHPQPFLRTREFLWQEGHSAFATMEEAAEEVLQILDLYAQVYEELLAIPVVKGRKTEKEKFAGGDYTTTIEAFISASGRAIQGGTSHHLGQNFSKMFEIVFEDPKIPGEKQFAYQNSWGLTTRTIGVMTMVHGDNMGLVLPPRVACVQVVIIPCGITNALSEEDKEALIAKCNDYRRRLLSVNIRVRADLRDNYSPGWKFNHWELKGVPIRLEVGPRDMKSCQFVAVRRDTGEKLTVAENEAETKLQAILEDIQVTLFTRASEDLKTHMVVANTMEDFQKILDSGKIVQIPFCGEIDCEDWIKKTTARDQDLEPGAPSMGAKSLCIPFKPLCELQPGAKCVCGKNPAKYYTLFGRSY
As to the kind of experiment: Assay for inhibitors of prolyl tRNA synthetase activity (ProRS assay, labeled proline incorporation). The class given is biochemical. Particulars: human ProRS 20 nM, 10 min at 37° C.; read-out: EPRS IC50. From the text: In order to establish the activities of the compounds highlighted above, we determined extent of inhibition of prolyl tRNA synthetase activity in dose response curves to obtain IC50 values.
The prolyl tRNA synthetase moiety (ProRS) in the cDNA of glutamyl prolyl tRNA synthetase was subcloned, tagged with a single biotin, purified and used in the assay.
Briefly, human ProRS with a 6×N-terminal His tag in pET28N with TVMV BioP was transformed in E. coli BL21 (DE3) cells, selected, overexpressed and purified using a Ni Seph 6 FF XK 16/20 column in the first stage. Ni-NTA eluates were pooled and treated with TVMV protease, and biotinylated using d-Biotin, MgCl2, ATP and the BirA enzyme. This was rerun through a Ni column as before. The eluates were further enriched and purified using membrane ultrafiltration and a SuperDex 200 XK 16/60 column, and peak fractions were confirmed by SDS-PAGE prior to protein amount determination, aliquoting and storage at −80° C. • ProRS assay was performed in 96 well plates in a final reaction volume of 20 μl, using staggered additions of Tris-Cl (pH 7.5, 60 mM), dithiothreitol (2 mM), ATP (5 mM, pH 7.0), MgCl2 6 mM), ProRS (20 nM, with pre-determined active fraction range) and bovine tRNA (20 μg). Controls and compounds, at various concentrations (10 μM to 0.5 nM), were incubated on ice with enzyme mix for 15 min followed by addition of proline (non-labeled and labeled, 3.96 and 1.04 μM (1 μCi) respectively) to initiate the reaction. Reaction was carried out for 10 min at 37° C. and terminated by addition of TCA (10%, 100 μl). Reaction mix was collected on a Whatman GF/B filter using a vacuum filtration manifold. This filter was washed 3 times with 5% TCA followed by 2 washes with ethanol, air dried, and read using a liquid scintillation counter (TopCount NXT) using MicroScint O. IC50 values were calculated and analyzed using ToolSet (4-parameter plot) and depicted herein.

Each structure is given as a SMILES string. Counter-ions that a name gives are not always drawn.

The IC50 is the midpoint of a concentration-inhibition curve. In the case of `O=C(C[C@H]1NCCC[C@@H]1O)Cn1cnc2cccc(-c3ccc(F)c(F)c3)c2c1=O` [Example 27, 5-(3,4-Difluorophenyl)-3-{3-[(2R,3S)-3-hydroxypiperidin-2-yl]-2-oxopropyl}quinazolin-4(3H)-one hydrochloride], the IC50 was found to be 0.006 µM.
The value for `O=C(C[C@H]1NCCC[C@@H]1O)Cn1cnc2cccc(-c3cccnc3)c2c1=O` [Example 28, 3-{3-[(2R,3S)-3-Hydroxypiperidin-2-yl]-2-oxopropyl}-5-(pyridin-3-yl)quinazolin-4(3H)-one dihydrochloride] was 0.006 µM; that for `Cc1ccc(C(F)(F)F)c2c(=O)n(CC(=O)C[C@H]3NCCC[C@@H]3O)cnc12` [Example 29, 3-{3-[(2R,3S)-3-Hydroxypiperidin-2-yl]-2-oxopropyl}-8-methyl-5-(trifluoromethyl)quinazolin-4(3H)-one hydrochloride] was 0.313 µM.
To `Cc1cc(F)cc2c(=O)n(C[C@@H](O)C[C@H]3NCCC[C@@H]3O)cnc12` [Example 34, 6-Fluoro-3-{(S)-2-hydroxy-3-[(2R,3S)-3-hydroxypiperidin-2-yl]propyl}-8-methylquinazolin-4(3H)-one hydrochloride] belongs 0.183 µM; to `Cl.[2H]C([2H])([2H])c1cc(Cl)cc2c(=O)n(C[C@@H](O)C[C@H]3NCCC[C@@H]3O)cnc12` [Example 35, 6-Chloro-3-{(S)-2-hydroxy-3-[(2R,3S)-3-hydroxypiperidin-2-yl]propyl}-8-(methyl-d3)quinazolin-4(3H)-one hydrochloride], 0.032 µM; to `Cc1c(Cl)ccc2c(=O)n(C[C@@H](O)C[C@H]3NCCC[C@@H]3O)cnc12` [Example 36, 7-Chloro-3-{(S)-2-hydroxy-3-[(2R,3S)-3-hydroxypiperidin-2-yl]propyl}-8-methylquinazolin-4(3H)-one hydrochloride], 0.429 µM.
To `Cc1cc(Br)cc2c(=O)n(C[C@@H](O)C[C@H]3NCCC[C@@H]3O)cnc12` [Example 37, 6-Bromo-3-{(S)-2-hydroxy-3-[(2R,3S)-3-hydroxypiperidin-2-yl]propyl}-8-methylquinazolin-4(3H)-one hydrochloride] belongs 0.062 µM; to `CCc1cc(Cl)cc2c(=O)n(C[C@@H](O)C[C@H]3NCCC[C@@H]3O)cnc12` [Example 38, 6-Chloro-8-ethyl-3-{(S)-2-hydroxy-3-[(2R,3S)-3-hydroxypiperidin-2-yl]propyl}quinazolin-4(3H)-one hydrochloride], 0.506 µM.
`Cc1cc(C)c2ncn(C[C@@H](O)C[C@H]3NCCC[C@@H]3O)c(=O)c2c1` [Example 39, 3-{(S)-2-Hydroxy-3-[(2R,3S)-3-hydroxypiperidin-2-yl]propyl}-6,8-dimethylquinazolin-4(3H)-one hydrochloride]: the IC50 stood at 0.158 µM.
The value for `CCc1cc(C)c2ncn(C[C@@H](O)C[C@H]3NCCC[C@@H]3O)c(=O)c2c1` [Example 41, 6-Ethyl-3-{(S)-2-hydroxy-3-[(2R,3S)-3-hydroxypiperidin-2-yl]propyl}-8-methylquinazolin-4(3H)-one hydrochloride] was 0.023 µM; that for `Cc1cc(OC(F)(F)F)cc2c(=O)n(C[C@@H](O)C[C@H]3NCCC[C@@H]3O)cnc12` [Example 42, 3-{(S)-2-Hydroxy-3-[(2R,3S)-3-hydroxypiperidin-2-yl]propyl}-8-methyl-6-(trifluoromethoxy)quinazolin-4(3H)-one hydrochloride] was 0.02 µM; that for `Cc1cc(S(C)(=O)=O)cc2c(=O)n(C[C@@H](O)C[C@H]3NCCC[C@@H]3O)cnc12` [Example 43, 3-{(S)-2-Hydroxy-3-[(2R,3S)-3-hydroxypiperidin-2-yl]propyl}-8-methyl-6-(methylsulfonyl)quinazolin-4(3H)-one hydrochloride] was 0.038 µM.
The value for `Cc1cc(C(F)(F)F)cc2c(=O)n(C[C@@H](O)C[C@H]3NCCC[C@@H]3O)cnc12` [Example 44, 3-{(S)-2-Hydroxy-3-[(2R,3S)-3-hydroxypiperidin-2-yl]propyl}-8-methyl-6-trifluoromethyl)quinazolin-4(3H)-one hydrochloride] was 0.02 µM; that for `Cc1cc(C(C)C)cc2c(=O)n(C[C@@H](O)C[C@H]3NCCC[C@@H]3O)cnc12` [Example 45, 3-{(S)-2-Hydroxy-3-[(2R,3S)-3-hydroxypiperidin-2-yl]propyl}-6-isopropyl-8-methylquinazolin-4(3H)-one hydrochloride] was 0.021 µM.
The value for `Cc1cc(C2CC2)cc2c(=O)n(C[C@@H](O)C[C@H]3NCCC[C@@H]3O)cnc12` [Example 46, 6-Cyclopropyl-3-{(S)-2-hydroxy-3-[(2R,3S)-3-hydroxypiperidin-2-yl]propyl}-8-methylquinazolin-4(3H)-one hydrochloride] was 0.034 µM; that for `Cc1cc(C#N)cc2c(=O)n(C[C@@H](O)C[C@H]3NCCC[C@@H]3O)cnc12` [Example 47, 3-{(S)-2-Hydroxy-3-[(2R,3S)-3-hydroxypiperidin-2-yl]propyl}-8-methyl-4-oxo-3,4-dihydroquinazoline-6-carbonitrile hydrochloride] was 0.235 µM; that for `Cl.O=c1c2c(-c3cccc(F)c3)cccc2ncn1C[C@@H](O)C[C@H]1NCCC[C@@H]1O` [Example 49, 5-(3-Fluorophenyl-3-{(S)-2-hydroxy-3-[(2R,3S)-3-hydroxypiperidin-2-yl]propyl}quinazolin-4(3H)-one hydrochloride] was 0.041 µM.
Regarding `O=c1c2cc(-c3cccc(F)c3)ccc2ncn1C[C@@H](O)C[C@H]1NCCC[C@@H]1O` [Example 50, 6-(3-Fluorophenyl)-3-{(S)-2-hydroxy-3-[(2R,3S)-3-hydroxypiperidin-2-yl]propyl}quinazolin-4(3H)-one hydrochloride], the concentration for half-maximal inhibition (IC50) turned out to be 0.014 µM.
To `O=c1c2cc(-c3cccc(Cl)c3)ccc2ncn1C[C@@H](O)C[C@H]1NCCC[C@@H]1O` [Example 51, 6-(3-Chlorophenyl)-3-{(S)-2-hydroxy-3-[(2R,3S)-3-hydroxypiperidin-2-yl]propyl}quinazolin-4(3H)-one hydrochloride] belongs 0.023 µM; to `O=c1c2cc(-c3cccc(C(F)(F)F)c3)ccc2ncn1C[C@@H](O)C[C@H]1NCCC[C@@H]1O` [Example 52, 3-{(S)-2-hydroxy-3-[(2R,3S)-3-hydroxypiperidin-2-yl]propyl}-6-(3-(trifluoromethyl)phenyl)quinazolin-4(3H)-one hydrochloride], 0.04 µM; to `Cc1cc(-c2cccc(F)c2)cc2c(=O)n(C[C@@H](O)C[C@H]3NCCC[C@@H]3O)cnc12` [Example 53, 6-(3-Fluorophenyl)-3-{(S)-2-hydroxy-3-[(2R,3S)-3-hydroxypiperidin-2-yl]propyl}-8-methylquinazolin-4(3H)-one hydrochloride], 0.009 µM.
To `Cc1cc(-c2cccc(C(F)(F)F)c2)cc2c(=O)n(C[C@@H](O)C[C@H]3NCCC[C@@H]3O)cnc12` [Example 54, 3-{(S)-2-Hydroxy-3-[(2R,3S)-3-hydroxypiperidin-2-yl]propyl}-8-methyl-6-(3-(trifluoromethyl)phenyl)quinazolin-4(3H)-one hydrochloride] belongs 0.031 µM; to `Cc1cc(-c2cccnc2)cc2c(=O)n(C[C@@H](O)C[C@H]3NCCC[C@@H]3O)cnc12` [Example 55, 3-{(S)-2-Hydroxy-3-[(2R,3S)-3-hydroxypiperidin-2-yl]propyl}-8-methyl-6-(pyridin-3-yl)quinazolin-4(3H)-one dihydrochloride], 0.011 µM.
